Experimental data: PMC11678221, “Design, Synthesis and Molecular Modeling of Pyrazolo[1,5-a]pyrimidine Derivatives as Dual Inhibitors of CDK2 and TRKA Kinases with Antiproliferative Activity” (Pharmaceuticals, 2024)

Legend:
RFX 393 cells [1] = test: Cell cycle investigation (PI flow cytometry); format: cell-based; conditions: GI50 concentration, 48 h; for %S: control 29.33; for %G0–G1: control 57.08
Description: RFX 393 cells underwent treatment with pyrazolopyrimidine derivatives 6s and 6t at their GI50 concentrations for 48 h.
RFX 393 cells underwent treatment with compounds 6s and 6t at their respective GI50 concentrations for 48 h. Following treatment, the cells were collected, dispersed in 0.5 mL of PBS, and subjected to centrifugation. They were then preserved in 70% (v/v) ethanol at 4 °C and subsequently rinsed with PBS, treated with RNase, and propidium iodide (PI) was used to stain the cells. Flow cytometric measurements were carried out employing a FACScalibur system (Becton Dickinson, Franklin Lakes, NJ, USA). The distributions of the cell cycle were subsequently calculated with the aid of software from Phoenix Flow Systems and Verity Software House (ModFit LT V6.0).

RFX 393 cells [2] = test: Apoptosis and necrosis investigation (Annexin V/PI flow cytometry); format: cell-based; conditions: GI50 concentration, 48 h; for Apoptosis Late: control 0.15, % given in Figure 10 only; for Apoptosis Early: control 0.64, % given in Figure 10 only; for Necrosis: control 1.92, % given in Figure 10 only; for Apoptosis Total: control 2.71, % given in Figure 10 only
Description: To assess the influence of compounds 6s and 6t on cell death pathways, RFX 393 cells were subjected to the compounds for 48 h and then stained using Annexin V/PI. […] The comprehensive outcomes are provided in Table 4 and graphically illustrated in Figure 10.
RFX 393 cells underwent treatment with the GI50 concentrations of compounds 6s and 6t for 48 h. Following the treatment, the cells were collected, dispersed in 0.5 mL of PBS, and subjected to centrifugation. They were then preserved in 70% (v/v) ethanol at 4 °C and subsequently rinsed with PBS. The fixed cells were then centrifuged again, resuspended in PBS, centrifuged once more, and stained with PE Annexin V and propidium iodide (PI) according to the manufacturer’s instructions. The samples were subsequently analyzed using flow cytometry with a FACScalibur instrument (Becton Dickinson, Franklin Lakes, NJ, USA). Data on cell cycle distributions were processed with the aid of Phoenix Flow Systems and Verity Software House.

RFX 393 [3] = test: In vitro cytotoxicity on renal carcinoma cell line (MTT assay); format: cell-based; conditions: renal carcinoma cell line RFX 393, read-out: RFX393 (IC50)
TrkA = biological target: T1, TrkA (Homo sapiens, UniProt P04629); test: TRKA inhibition assay (BPS Bioscience kit, Kinase-Glo Max luminescence); format: biochemical; conditions: four concentrations 0.01, 0.1, 1, 10 µM, triplicate, mean ± SD, read-out: Enzyme Inhibition IC50 TRK-A
T1 construct: purchased BPS Bioscience, San Diego, CA, USA 79548
T1 sequence (P04629 33-796): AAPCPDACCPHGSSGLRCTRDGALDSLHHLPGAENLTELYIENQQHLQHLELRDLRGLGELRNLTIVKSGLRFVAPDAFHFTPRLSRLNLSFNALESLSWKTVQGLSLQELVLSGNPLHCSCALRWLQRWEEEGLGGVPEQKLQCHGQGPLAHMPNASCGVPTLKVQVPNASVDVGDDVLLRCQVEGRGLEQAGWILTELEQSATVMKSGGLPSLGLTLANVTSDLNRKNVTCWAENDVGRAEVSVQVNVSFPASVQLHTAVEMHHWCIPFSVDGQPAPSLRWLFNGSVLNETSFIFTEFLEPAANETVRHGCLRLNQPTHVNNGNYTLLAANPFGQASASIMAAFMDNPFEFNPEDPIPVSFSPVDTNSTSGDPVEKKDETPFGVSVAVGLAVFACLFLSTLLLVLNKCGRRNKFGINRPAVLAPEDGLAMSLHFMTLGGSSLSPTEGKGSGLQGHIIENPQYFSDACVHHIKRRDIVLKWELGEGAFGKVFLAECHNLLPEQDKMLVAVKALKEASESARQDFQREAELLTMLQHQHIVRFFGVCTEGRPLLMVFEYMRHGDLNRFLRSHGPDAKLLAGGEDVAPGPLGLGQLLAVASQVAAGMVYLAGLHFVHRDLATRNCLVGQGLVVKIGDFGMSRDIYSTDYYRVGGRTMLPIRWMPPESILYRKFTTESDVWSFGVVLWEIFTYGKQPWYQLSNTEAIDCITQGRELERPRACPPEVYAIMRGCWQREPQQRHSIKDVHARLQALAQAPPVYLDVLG

HOP-62 = test: NCI 60 cell line single-dose growth inhibition (SRB); format: cell-based, human; conditions: 10 µM; lung carcinoma HOP-62
Description: (§1) The developed pyrazolopyrimidines 6a–t, 11a–g, and 12 were evaluated by the National Cancer Institute (NCI) Developmental Therapeutic Program https://dtp.cancer.gov/ (accessed on 17 July 2022) for their prospective efficacy of growth-inhibitory activity verses 60 different carcinoma cell lines of NCI. Human carcinoma cell lines originated across nine distinct cancer types: central nervous system, cancer of the blood, colorectal, breast, ovary, kidney, melanoma, prostatic, and lung carcinomas. All compounds have been assessed with a concentration of 10 µM versus the collection of 60 diverse cancer cell lines. Outcomes are expressed as percentages of growth inhibition (GI %) for the evaluated compounds versus the complete set of cell lines (Supplementary Materials).
(§2) Performed by US National Cancer Institute according to previously reported standard procedure as follows: Cells were plated into 96-well microtiter plates with each well equipped with 100 µL of culture medium at densities between 5000 and 40,000 cells per well, based on the specific cell line’s doubling time. After seeding, incubation was carried out at 37 °C in 5% carbon dioxide, 95% […] environment with 100% relative humidity for one day to permit the cells to attach before proceeding to treatment with the tested compounds. To determine the cell count at drug exposure time of (Tz), two plates were per fixed cell line using trichloroacetic acid after the 24 h incubation period.
(§3) The studied compounds were initially dispersed in dimethyl sulfoxide at a concentration 400 times exceeding the intended final concentration and subsequently frozen until required. Before the application, an aliquot of the stock solution was warmed to room temperature and diluted in a complete medium containing 50 µg per mL of gentamicin to attain twice the intended concentration. Subsequently, 100 µL of the diluted compound was introduced to every well holding 100 µL of the medium to achieve the intended concentration. After the compound was added, the plates were incubated under the same conditions for a further 48 h at 37 °C.
(§4) For the adherent cells, the experiment was concluded via the introduction of 50 µL of cold 50% (w/v) trichloroacetic acid into each well, resulting in a last TCA concentration for 10%. Then, the cell plates were incubated at 4 °C for about one hour to fix the cells.
(§5) After the removal of the supernatant, the plates were washed with tap water five times before being dried using air. For the suspension cells, a similar process was followed, but 50 µL of 80% TCA was used, yielding a final TCA concentration of 16% for the cells fixed in the well’s bottom.
(§6) Following cell fixation, 100 µL of the 0.4% (wight/volume) solution of sulforhodamine B with acetic acid at a concentration of 1% was introduced to all individual wells, and then incubated at ambient temperature for 10 min. The plates were washed five times with 1% acetic acid to eliminate any residual dye, followed by air-drying. Next, […] Tris base was added to disperse the bonded dye, and, using an automatic microplate reader, the absorbance was determined at 515 nm.
(§7) The percentage of growth inhibition measurement depended on the absorbance values at the baseline time point […], as well as during the control growth phase (C) and the test growth phase (Ti). When Ti was greater than or equal to Tz, the calculation formula used [(Ti − Tz)/(C − Tz)] × 100. If Ti was less than Tz, the formula used was (Ti − Tz)/Tz × 100.

RFX 393 [4] = test: as above; format: cell-based, human; conditions: 10 µM; kidney carcinoma cell line RFX 393
Description: as §1, §2, §3, §4, §5, §6, §7

CDK2/CyclinA2 = biological target: T2, CDK2/CyclinA2 (Homo sapiens, UniProt P24941); test: CDK2 inhibition assay (BPS Bioscience kit, Kinase-Glo Max luminescence); format: biochemical; conditions: four concentrations 0.01, 0.1, 1, 10 µM, triplicate, mean ± SD, read-out: Enzyme Inhibition IC50 CDK-2
T2 construct: purchased BPS Bioscience, San Diego, CA, USA 79599

SNB-75 = test: NCI 60 cell line single-dose growth inhibition (SRB); format: cell-based, human; conditions: 10 µM; central nervous system SNB-75 carcinoma cell line
Description: as §1, §2, §3, §4, §5, §6, §7

RPMI-8226 = test: as above; format: cell-based, human; conditions: 10 µM; leukemia RPMI-8226
Description: as §1, §2, §3, §4, §5, §6, §7

CCRF-CEM = test: as above; format: cell-based, human; conditions: 10 µM; leukemia CCRF-CEM
Description: as §1, §2, §3, §4, §5, §6, §7

56 cell lines = test: NCI 60 cell line single-dose growth inhibition, mean over the panel; format: cell-based; conditions: Homo sapiens, mean across 56 cell lines, read-out: mean growth inhibition (GI%)
Description: as §1, with “Materials). […]” for “Materials).”
as §6, with “The plates were washed five times with 1% acetic acid to eliminate any residual dye, followed by air-drying.” left out
The percentage of growth inhibition measurement depended on the absorbance values at the baseline time point (T0), as well as during the control growth phase (C) and the test growth phase (Ti). […]

HOP-92 = test: NCI 60 cell line single-dose growth inhibition (SRB); format: cell-based, human; conditions: 10 µM; lung carcinoma HOP-92
Description: as §1, §2, §3, §4, §5, §6, §7

NCI-H460 = test: as above; format: cell-based, human; conditions: 10 µM; lung carcinoma NCI-H460
Description: as §1, §2, §3, §4, §5, §6, §7

Trk = conditions: known inhibitor, in Figure 2; no reference given; cited from earlier work
ACHN = test: NCI 60 cell line single-dose growth inhibition (SRB); format: cell-based, human; conditions: 10 µM; renal cancer cell line ACHN
Description: as §1, §2, §3, §4, §5, §6, §7

SMILES: CCOC(=O)c1c(Nc2ccccc2)nn2c(-c3ccco3)ccnc12 [6s, Ethyl 7-(Furan-2-yl)-2-(anilinyl)pyrazolo[1,5-a]pyrimidine-3-carboxylate]
- %S (RFX 393 cells [1]): 11.49%
- %G0–G1 (RFX 393 cells [1]): 84.36%
- Apoptosis Late (RFX 393 cells [2]): 7.74%
- Apoptosis Early (RFX 393 cells [2]): 20.29%
- Necrosis (RFX 393 cells [2]): 4.04%
- Apoptosis Total (RFX 393 cells [2]): 32.07%
- IC50 (RFX 393 [3]): 11.7 ± 0.4 µM

SMILES: COc1ccc(-c2ccnc3c(C#N)c(Nc4ccccc4)nn23)cc1OC [6d, 7-(3,4-Dimethoxyphenyl)-2-(anilinyl)pyrazolo[1,5-a]pyrimidine-3-carbonitrile]
- IC50 (TrkA): 0.57 ± 0.02 µM
- GI % (HOP-62): 100.07%
- GI % (RFX 393 [4]): 84.17%
- IC50 (CDK2/CyclinA2): 0.55 ± 0.04 µM

SMILES: CCOC(=O)c1c(Nc2ccccc2)nn2c(-c3ccc4ccccc4c3)ccnc12 [6r, Ethyl 7-(Naphthalen-2-yl)-2-(anilinyl)pyrazolo[1,5-a]pyrimidine-3-carboxylate]
- IC50 (TrkA): 0.97 ± 0.04 µM
- GI % (RFX 393 [4]): 81.71%
- IC50 (CDK2/CyclinA2): 0.2 ± 0.02 µM

SMILES: CCOC(=O)c1c(Nc2ccccc2)nn2c(-c3ccco3)c(C#N)cnc12 [11g, Ethyl 6-Cyano-7-(furan-2-yl)-2-(anilinyl)pyrazolo[1,5-a]pyrimidine-3-carboxylate]
- IC50 (TrkA): 0.89 ± 0.03 µM
- GI % (SNB-75): 69.53%
- IC50 (CDK2/CyclinA2): 0.22 ± 0.02 µM

SMILES: CCOC(=O)c1c(Nc2ccccc2)nn2c(-c3ccc([N+](=O)[O-])cc3)ccnc12 [6q, Ethyl 7-(4-Nitrophenyl)-2-(anilinyl)pyrazolo[1,5-a]pyrimidine-3-carboxylate]
- GI % (RFX 393 [4]): 52.08%

SMILES: CCOC(=O)c1c(Nc2ccccc2)nn2c(-c3ccccc3)ccnc12 [6k, Ethyl 7-Phenyl-2-(anilinyl)pyrazolo[1,5-a]pyrimidine-3-carboxylate]
- IC50 (TrkA): 1.17 ± 0.09 µM
- GI % (RPMI-8226): 69.31%
- GI % (CCRF-CEM): 90.41%
- IC50 (CDK2/CyclinA2): 1.58 ± 0.13 µM

SMILES: CCOC(=O)c1c(Nc2ccccc2)nn2c(-c3ccc(OC)c(OC)c3)ccnc12 [6n, Ethyl 7-(3,4-Dimethoxyphenyl)-2-(anilinyl)pyrazolo[1,5-a]pyrimidine-3-carboxylate]
- inhibition at 10 µM (56 cell lines): 43.9%
- IC50 (TrkA): 0.98 ± 0.04 µM
- GI % (HOP-92): 94.73%
- GI % (NCI-H460): 52.11%
- IC50 (CDK2/CyclinA2): 0.78 ± 0.04 µM

SMILES: CCOC(=O)c1c(Nc2ccccc2)nn2c(-c3ccc(OC)cc3)ccnc12 [6m, Ethyl 7-(4-Methoxyphenyl)-2-(anilinyl)pyrazolo[1,5-a]pyrimidine-3-carboxylate]
- IC50 (TrkA): 0.96 ± 0.04 µM
- GI % (RFX 393 [4]): 102.68%
- IC50 (CDK2/CyclinA2): 1.06 ± 0.09 µM

SMILES: CN[C@@H]1C[C@H]2O[C@@](C)([C@@H]1OC)n1c3ccccc3c3c4c(c5c6ccccc6n2c5c31)C(=O)NC4 [Staurosporine, reference compound]
- IC50 (RFX 393 [3]): 0.07 µM

SMILES: N#Cc1c(Nc2ccccc2)nn2c(-c3ccco3)ccnc12 [6i, 7-(Furan-2-yl)-2-(anilinyl)pyrazolo[1,5-a]pyrimidine-3-carbonitrile]
- GI % (HOP-92): 68.96%

SMILES: O=C(Nc1cnn2ccc(N3CCC[C@@H]3c3cc(F)ccc3F)nc12)N1CC[C@H](O)C1 [Larotrectinib]
- IC50 (Trk): 0.002 µM

SMILES: CCOC(=O)c1c(Nc2ccccc2)nn2c(-c3cccs3)ccnc12 [6t, Ethyl 2-(Anilinyl)-7-(thiophen-2-yl)pyrazolo[1,5-a]pyrimidine-3-carboxylate]
- %S (RFX 393 cells [1]): 15.26%
- %G0–G1 (RFX 393 cells [1]): 78.01%
- Apoptosis Late (RFX 393 cells [2]): 9.49%
- Apoptosis Early (RFX 393 cells [2]): 11.15%
- Necrosis (RFX 393 cells [2]): 3.58%
- Apoptosis Total (RFX 393 cells [2]): 24.22%
- GI % (RFX 393 [4]): 106.08%
- IC50 (CDK2/CyclinA2): 0.09 ± 0.01 µM
- IC50 (RFX 393 [3]): 19.9 ± 0.67 µM

SMILES: CCOC(=O)c1c(Nc2ccccc2)nn2c(-c3ccc(Br)cc3)ccnc12 [6p, Ethyl 7-(4-Bromophenyl)-2-(anilinyl)pyrazolo[1,5-a]pyrimidine-3-carboxylate]
- IC50 (TrkA): 1.34 ± 0.08 µM
- GI % (HOP-92): 71.8%
- GI % (ACHN): 66.02%
- GI % (NCI-H460): 66.12%
- GI % (RFX 393 [4]): 112.34%
- IC50 (CDK2/CyclinA2): 0.66 ± 0.04 µM

SMILES: CCOC(=O)c1c(Nc2ccccc2)nn2c(-c3ccc(Cl)cc3)ccnc12 [6o, Ethyl 7-(4-Chlorophenyl)-2-(anilinyl)pyrazolo[1,5-a]pyrimidine-3-carboxylate]
- IC50 (TrkA): 1.59 ± 0.11 µM
- GI % (CCRF-CEM): 83.85%
- GI % (RFX 393 [4]): 110.55%
- IC50 (CDK2/CyclinA2): 0.76 ± 0.04 µM
